Reference: patent US20250041433A1, “PROTEIN-ANTIVIRAL COMPOUND CONJUGATES” (REGENERON PHARMACEUTICALS, INC., priority 2021, published 2025)

Tested on: H1N1 A/Puerto Rico/08/1934-GFP influenza virus
Assay: organism not typed
Assay type: cell-based, H1N1 A/Puerto Rico/08/1934 influenza virus
Details: for IC50: MDCK, 20 h, read-out: Antiviral activity of VX-787 free payloads IC50; for antiviral activity of VX-787 derivatives (in words): free payloads

| Compound | IC50 [nM] | antiviral activity of VX-787 derivatives (in words) |
| --- | --- | --- |
| O=C(NO)[C@H]1C2CCC(CC2)[C@@H]1Nc1nc(-c2c[nH]c3ncc(F)cc23)ncc1F [Compound 20a] | 3.77 | displayed antiviral activity |
| O=C(O)[C@H]1C2CCC(CC2)[C@@H]1Nc1nc(-c2c(CO)[nH]c3ncc(F)cc23)ncc1F [Compound 15] | 240 | displayed antiviral activity |
| O=C(NO)[C@H]1C2CCC(CC2)[C@@H]1Nc1nc(-c2c[nH]c3ncc(F)cc23)nc2sccc12 [Compound 20b] | 9.64 | displayed antiviral activity |
| O=C(NO)[C@H]1C2CCC(CC2)[C@@H]1Nc1nc(-c2n[nH]c3ncc(F)cc23)ncc1F [Compound 57] | 2 | – |
| Cn1ccc2c(N[C@H]3C4CCC(CC4)[C@@H]3C(=O)NO)nc(-c3c[nH]c4ncc(F)cc34)nc21 [Compound 20c] | 13.8 | displayed antiviral activity |
| O=C(NO)[C@H]1C2CCC(CC2)[C@@H]1Nc1nc(-c2n[nH]c3ncc(F)cc23)nc2sccc12 [Compound 62] | 2.19 | – |
